Test results reported in patent US8816090B2, “Benzisoxazole derivatives” (Pfizer Inc., priority 2005, dated 2014).
Where a name gives a salt, the structure may show the parent alone.

Columns and labels:
[1] = target: T1, Human 5-HT4(d) (Homo sapiens, UniProt Q13639); test: Agonist-induced cAMP elevation in human 5-HT4(d) transfected HEK293 cells; type: cell-based; conditions: for Emax: HEK293, cAMP production normalized to the amount produced by 1,000 nM serotonin; for EC50: cAMP elevation (HTRF), human 5-HT4(d) transfected HEK293 cells
T1 construct: expressed in transfected cells
T1 sequence (Q13639 1-360 isoform Q13639-3): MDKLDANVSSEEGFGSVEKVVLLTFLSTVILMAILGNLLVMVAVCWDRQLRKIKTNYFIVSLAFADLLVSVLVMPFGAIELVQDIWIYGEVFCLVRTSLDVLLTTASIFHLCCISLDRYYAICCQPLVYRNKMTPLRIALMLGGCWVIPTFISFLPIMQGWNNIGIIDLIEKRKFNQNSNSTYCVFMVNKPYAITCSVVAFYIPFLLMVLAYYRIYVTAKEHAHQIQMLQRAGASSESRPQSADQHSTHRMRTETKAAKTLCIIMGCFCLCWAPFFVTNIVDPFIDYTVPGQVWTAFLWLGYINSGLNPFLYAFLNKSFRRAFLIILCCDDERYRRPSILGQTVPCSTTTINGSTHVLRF
Method: Human 5-HT4(d) transfected HEK293 cells were established in-house. The cells were grown at 37° C. and 5% CO2 in DMEM supplemented with 10% FCS, 20 mM HEPES (pH 7.4), 200 μg/ml hygromycin B (Gibco), 100 units/ml penicillin and 100 μg/ml streptomycin.
The cells were grown to 60-80% confluence. On the previous day before treatment with compounds dialyzed FCS (Gibco) was substituted for normal and the cells were incubated overnight.
Compounds were prepared in 96-well plates (12.5 μl/well). The cells were harvested with PBS/1 mM EDTA, centrifuged and washed with PBS. At the beginning of the assay, cell pellet was resuspended in DMEM supplemented with 20 mM HEPES, 10 μM pargyline (Sigma) and 1 mM 3-isobutyl-1-methylxanthine (Sigma) at the concentration of 1.6×10^5 cells/ml and left for 15 min at room temperature. The reaction was initiated by addition of the cells into plates (12.5 μl/well). After incubation for 15 min at room temperature, 1% Triton X-100 was added to stop the reaction (25 μl/well) and the plates were left for 30 minutes at room temperature. Homogenous time-resolved fluorescence-based cAMP (Schering) detection was made according to the manufacturer's instruction. ARVOsx multilabel counter (Wallac) was used to measure HTRF (excitation 320 nm, emission 665 nm/620 nm, delay time 50 μs, window time 400 μs).
Data was analyzed based on the ratio of fluorescence intensity of each well at 620 nm and 665 nm followed by cAMP quantification using cAMP standard curve. Enhancement of cAMP production elicited by each compound was normalized to the amount of cAMP produced by 1,000 nM serotonin (Sigma).

Compound | Emax [1] | EC50 [1] | melting point
O=C(O)C1(CN2CCC(COc3noc4cccc(O[C@H]5CCC[C@@H]5O)c34)CC2)CCCC1 (relative stereo) [Example 33, 1-({4-[({4-[(trans-2-Hydroxycyclopentyl)oxy]-1,2-benzisoxazol-3-yl}oxy)methyl]piperidin-1-yl}methyl)cyclopentanecarboxylic acid] | 51% | 3.3 nM | 
CO[C@@H]1CCC[C@@H]1Oc1cccc2onc(OCC3CCN(CC4(O)CCOCC4)CC3)c12 (relative stereo) [Example 37, 4-({4-[({4-[(cis-2-Methoxycyclopentyl)oxy]-1,2-benzisoxazol-3-yl}oxy)methyl]piperidin-1-yl}methyl)-tetrahydro-2H-pyran-4-ol and its oxalate salt] | 50% | 8.8 nM | 
O[C@H]1CCCC[C@H]1Oc1cccc2onc(OCC3CCN(CC4(O)CCOCC4)CC3)c12 (relative stereo) [Example 40, 4-({4-[({4-[(cis-2-Hydroxycyclohexyloxyl)oxy]-1,2-benzisoxazol-3-yl]oxy)methyl}piperidin-1-yl}-methyl)tetrahydro-2H-pyran-4-ol] | 42% | 16 nM | 125.2 °C
O=C(O)C(F)(F)CN1CCC(COc2noc3cccc(OCC(F)(F)F)c23)CC1 [Example 6, 2,2-Difluoro-3-[4-({[4-(2,2,2-trifluoroethoxy)-1,2-benzisoxazol-3-yl]oxy}methyl)-piperidin-1-yl]propanoic acid] | 30% | 20 nM | 227.1 °C
CC(C)COc1cccc2onc(OCC3CCN(CC4(O)CCOCC4)CC3)c12 [Example 8, 1-[(4-Hydroxytetrahydro-2H-pyran-4-yl)methyl]-4-{[(4-isobutoxy-1,2-benzisoxazol-3-yl)oxy]methyl}-piperidinium and its p-toluenesulfonate salt] | 39% | 2.6 nM | 
O=C(O)C1(CCN2CCC(COc3noc4cccc(OC5CCCC5)c34)CC2)CCOCC1 [Example 25, 4-{2-[4-({[4-(Cyclopentyloxy)-1,2-benzisoxazol-3-yl]oxy}methyl)piperidin-1-yl]ethyl}tetrahydro-2H-Pyran-4-carboxylic acid] | 41% | 3 nM | 
O=C(O)C1(CN2CCC(COc3noc4cccc(OC5CCOCC5)c34)CC2)CCOCC1 [Example 27, 4-{[4-({[4-(Tetrahydro-2H-pyran-4-yloxy)-1,2-benzisoxazol-3-yl]oxy}methyl)piperidin-1-yl]methyl}-tetrahydro-2H-pyran-4-carboxylic acid] | 71% | 11 nM | 
OC1(CN2CCC(COc3noc4cccc(O[C@H]5CC[C@H](O)CC5)c34)CC2)CCOCC1 [Example 41, 4-({4-[({4-[(trans-4-Hydroxycyclohexyl)oxy]-1,2-benzisoxazol-3-yl}oxy)methyl]piperidin-1-yl}-methyl)tetrahydro-2H-pyran-4-ol] | 44% | 3 nM | 
O=C(O)C1(CN2CCC(COc3noc4cccc(O[C@H]5CC[C@H](O)CC5)c34)CC2)CCOCC1 [Example 42, 4-({4-[({4-[(trans-4-Hydroxycyclohexyl)oxy]-1,2-benzisoxazol-3-yl}oxy)methyl]piperidin-1-yl}-methyl)tetrahydro-2H-pyran-4-carboxylic acid] | 67% | 18 nM | 
O=C(O)C1(CN2CCC(COc3noc4cccc(O[C@H]5CC[C@@H](O)CC5)c34)CC2)CCOCC1 [Example 43, 4-({4-[({4-[(cis-4-Hydroxycyclohexyl)oxy]-1,2-benzisoxazol-3-yl}oxy)methyl]piperidin-1-yl}methyl)-tetrahydro-2H-pyran-4-carboxylic acid] | 49% | 3.3 nM | 
O=C(O)[C@H]1CC[C@H](CN2CCC(COc3noc4cccc(O[C@H]5CC[C@@H](CO)CC5)c34)CC2)CC1 [Example 47, trans-4-[(4-{[(4-{[cis-4-(Hydroxymethyl)cyclohexyl]oxy}-1,2-benzisoxazol-3-yl)oxy]methyl}-Piperidin-1-yl)methyl]cyclohexanecarboxylic acid] | 71% | 5.3 nM | 
O=C(O)C1(CN2CCC(COc3noc4cccc(OCC5(CO)CCC5)c34)CC2)CCOCC1 [Example 49, 4-[(4-{[(4-{[1-(Hydroxymethyl)cyclobutyl]methoxy}-1,2-benzisoxazol-3-VI)oxy]methyl}piperidin-1-yl)methyl]tetrahydro-2H-pyran-4-carboxylic acid] | 40% | 65 nM | 
O=C(O)C1(CN2CCC(COc3noc4cccc(OCC5(CO)CCCC5)c34)CC2)CCOCC1 [Example 51, 4-[(4-{[(4-{[1-(Hydroxymethyl)cyclopentyl]methoxy}-1,2-benzisoxazole-3-yl)oxy]methyl}piperidin-1-yl)methyl]tetrahydro-2H-pyran-4-carboxylic acid] | 33% | 27 nM | 
O=C(O)C1(CN2CCC(COc3noc4cccc(OCC5(CO)CCCC5)c34)CC2)CCC1 [Example 52, 1-[(4-{[(4-{[1-(Hydroxymethyl)cyclopentyl]methoxy}-1,2-benzisoxazol-3-yl)oxy]methyl}piperidin-1-yl)methyl]cyclobutanecarboxylic acid] | 41% | 30 nM | 

Next, values leading:

Emax [1] | EC50 [1] | melting point | Compound
40% | 1.6 nM |  | O[C@H]1CCC[C@@H]1Oc1cccc2onc(OCC3CCN(CC4(O)CCOCC4)CC3)c12 (relative stereo) [Example 32, 4-({4-[({4-[(trans-2-Hydroxycyclopentyl)oxy]-1,2-benzisoxazol-3-yl}oxy)methyl]piperidin-1-yl}-methyl)tetrahydro-2H-pyran-4-ol]
46% | 2.7 nM |  | O=C(O)C1(CN2CCC(COc3noc4cccc(O[C@H]5CCC[C@@H]5O)c34)CC2)CCC1 (relative stereo) [Example 34, 1-({4-[({4-[(trans-2-Hydroxycyclopentyl)oxy]-1,2-benzisoxazol-3-yl}oxy)methyl]piperidin-1-yl}-methyl)cyclobutanecarboxylic acid]
56% | 1.4 nM |  | CO[C@H]1CCC[C@@H]1Oc1cccc2onc(OCC3CCN(CC4(O)CCOCC4)CC3)c12 (relative stereo) [Example 35, 4-({4-[({4-[(trans-2-Methoxycyclopentyl)oxy]-1,2-benzisoxazol-3-yl}oxy)methyl]piperidin-1-yl}-methyl)tetrahydro-2H-pyran-4-ol and its 4-methylbenzenesulfonate]
52% | 1.9 nM | 140.8 °C | O[C@@H]1CCC[C@@H]1Oc1cccc2onc(OCC3CCN(CC4(O)CCOCC4)CC3)c12 (relative stereo) [Example 36, 4-({4-[({4-[(cis-2-Hydroxycyclopentyl)oxy]-1,2-benzisoxazol-3-yl}oxy)methyl]piperidin-1-yl}methyl)-tetrahydro-2H-pyran-4-ol]
56% | 1.3 nM |  | O[C@H]1CC[C@H](Oc2cccc3onc(OCC4CCN(CC5(O)CCOCC5)CC4)c23)C1 (relative stereo) [Example 39, 4-({4-[({4-[(trans-3-Hydroxycyclopentyl)oxy]-1,2-benzisoxazol-3-yl}oxy)methyl]piperidin-1-yl}methyl)tetrahydro-2H-pyran-4-ol]
69% | 1.5 nM |  | O=C(O)C1(CN2CCC(COc3noc4cccc(OCC(F)(F)F)c34)CC2)CCOCC1 [Example 1, 4-{[4-({[4-(2,2,2-Trifluoroethoxy)-1,2-benzisoxazol-3-yl]oxy}methyl)piperidin-1-yl]methyl}tetrahydro-2H-pyran-4-carboxylic acid]
47% | 0.51 nM | 164.9 °C | O=C(O)C1(CN2CCC(COc3noc4cccc(OCC(F)(F)F)c34)CC2)CCC1 [Example 2, 1-{[4-({[4-(2,2,2-Trifluoroethoxy)-1,2-benzisoxazol-3-yl]oxy}methyl)piperidin-1-yl]methyl}-cyclobutanecarboxylic acid]
34% | 0.69 nM | 129.2 °C | CC(C)(CN1CCC(COc2noc3cccc(OCC(F)(F)F)c23)CC1)C(=O)O [Example 3, 2,2-Dimethyl-3-[4-({[4-(2,2,2-trifluoroethoxy)-1,2-benzisoxazol-3-yl]oxy}methyl)-piperidin-1-yl]propanoic acid]
77% | 1.2 nM | 158 °C | O=C(O)[C@H]1CC[C@H](CN2CCC(COc3noc4cccc(OCC(F)(F)F)c34)CC2)CC1 [Example 4, trans-4-{[4-({[4-(2,2,2-Trifluoroethoxy)-1,2-benzisoxazol-3-yl]oxy}methyl)-piperidin-1-yl]methyl}cyclohexanecarboxylic acid]
70% | 2.7 nM | 220.5 °C | O=C(O)C1(CCN2CCC(COc3noc4cccc(OCC(F)(F)F)c34)CC2)CCOCC1 [Example 5, 4-{2-[4-({[4-(2,2,2-Trifluoroethoxy)-1,2-benzisoxazol-3-yl]oxy}methyl)piperidin-1-yl]ethyl}tetrahydro-2H-pyran-4-carboxylic acid]
